Test results as given in PMC10073911, “N-Arylacetamide derivatives of methyl 1,2-benzothiazine-3-carboxylate as potential drug candidates for urease inhibition” (Royal Society Open Science, 2023).
Values joined by “and” are separate entries in the source; they are usually repeats but may differ in a detail not shown here. Identical values can stand only once. Like-named read-outs stand apart in the source and are kept apart here.

Experiments:
urease = urease (Canavalia ensiformis, UniProt P07374); assay: biochemical; settings: indophenol method, urea substrate 100 mM, absorbance at 630 nm, triplicate
[1] = urease inhibition IC50 ± s.e.m.
[2] = read-out: urease inhibition IC50 ± s.e.m.

urease, sequence (P07374 whole entry, looked up): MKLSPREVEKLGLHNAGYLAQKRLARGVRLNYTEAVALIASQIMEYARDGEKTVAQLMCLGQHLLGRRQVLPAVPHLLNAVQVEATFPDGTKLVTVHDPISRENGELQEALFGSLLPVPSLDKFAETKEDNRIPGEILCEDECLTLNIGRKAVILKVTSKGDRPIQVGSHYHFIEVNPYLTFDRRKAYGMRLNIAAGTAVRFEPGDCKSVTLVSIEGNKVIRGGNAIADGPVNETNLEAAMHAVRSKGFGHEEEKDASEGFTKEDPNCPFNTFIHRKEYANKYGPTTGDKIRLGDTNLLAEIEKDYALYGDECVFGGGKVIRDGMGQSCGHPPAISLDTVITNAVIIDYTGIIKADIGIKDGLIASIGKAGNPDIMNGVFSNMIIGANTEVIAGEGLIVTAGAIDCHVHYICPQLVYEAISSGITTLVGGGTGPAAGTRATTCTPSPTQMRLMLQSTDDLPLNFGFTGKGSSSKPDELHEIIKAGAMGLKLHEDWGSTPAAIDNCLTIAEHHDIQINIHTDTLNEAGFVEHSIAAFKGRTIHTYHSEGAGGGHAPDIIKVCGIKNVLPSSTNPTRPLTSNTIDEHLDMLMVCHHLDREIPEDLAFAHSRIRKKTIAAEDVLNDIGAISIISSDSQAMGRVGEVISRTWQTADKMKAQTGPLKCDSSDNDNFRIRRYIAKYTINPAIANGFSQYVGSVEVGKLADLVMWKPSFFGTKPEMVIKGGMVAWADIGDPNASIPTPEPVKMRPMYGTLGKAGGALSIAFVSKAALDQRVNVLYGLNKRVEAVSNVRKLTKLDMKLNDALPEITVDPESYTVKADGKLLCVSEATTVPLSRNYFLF

Compound	melting point [°C]	IC50 (urease; [1])	IC50 (urease; [2]) [µM]
COC(=O)C1=C(O)c2ccccc2S(=O)(=O)N1CC(=O)Nc1ccccc1 [5a, Methyl 4-hydroxy-2-(2-oxo-2-(phenylamino)ethyl)-2H-benzo[e][1,2]thiazine-3-carboxylate 1,1-dioxide]	188 to 190	10.1 ± 0.9 µM	
COC(=O)C1=C(O)c2ccccc2S(=O)(=O)N1CC(=O)Nc1ccccc1OC [5b, Methyl 4-hydroxy-2-(2-((2-methoxyphenyl)amino)-2-oxoethyl)-2H-benzo[e][1,2]thiazine-3-carboxylate 1,1-dioxide]		14.9 ± 1.5 µM	
COC(=O)C1=C(O)c2ccccc2S(=O)(=O)N1CC(=O)Nc1ccccc1C [5c, Methyl 4-hydroxy-2-(2-oxo-2-(o-tolylamino)ethyl)-2H-benzo[e][1,2]thiazine-3-carboxylate 1,1-dioxide]	172 to 174	17.2 ± 1.1 µM	
COC(=O)C1=C(O)c2ccccc2S(=O)(=O)N1CC(=O)Nc1ccccc1C(=O)OC [5d, Methyl 4-hydroxy-2-(2-((2-(methoxycarbonyl)phenyl)amino)-2-oxoethyl)-2H-benzo[e][1,2]thiazine-3-carboxylate 1,1-dioxide]	178 to 180	14.1 ± 0.12 µM	
COC(=O)C1=C(O)c2ccccc2S(=O)(=O)N1CC(=O)Nc1cccc(OC)c1 [5e, Methyl 4-hydroxy-2-(2-((3-methoxyphenyl)amino)-2-oxoethyl)-2H-benzo[e][1, 2]thiazine-3-carboxylate 1,1-dioxide]			18.2 ± 1.69
COC(=O)C1=C(O)c2ccccc2S(=O)(=O)N1CC(=O)Nc1cccc(C)c1 [5f, Methyl 4-hydroxy-2-(2-oxo-2-(m-tolylamino)ethyl)-2H-benzo[e][1,2]thiazine-3-carboxylate 1,1-dioxide]	192 to 194	15.5 ± 1.35 µM	
COC(=O)C1=C(O)c2ccccc2S(=O)(=O)N1CC(=O)Nc1ccc(OC)cc1 [5g, Methyl 4-hydroxy-2-(2-((4-methoxyphenyl)amino)-2-oxoethyl)-2H-benzo[e][1,2]thiazine-3-carboxylate 1,1-dioxide]	176 to 178	20.4 ± 1.81 µM	
COC(=O)C1=C(O)c2ccccc2S(=O)(=O)N1CC(=O)Nc1ccc(C)cc1 [5h, Methyl 4-hydroxy-2-(2-oxo-2-(p-tolylamino)ethyl)-2H-benzo[e][1,2]thiazine-3-carboxylate 1,1-dioxide]		16.4 ± 1.4 µM	
COC(=O)C1=C(O)c2ccccc2S(=O)(=O)N1CC(=O)Nc1ccc(Cl)cc1 [5i, Methyl 2-(2-((4-chlorophenyl)amino)-2-oxoethyl)-4-hydroxy-2H-benzo[e][1,2]thiazine-3-carboxylate 1,1-dioxide]		20.7 ± 0.25 µM	
COC(=O)C1=C(O)c2ccccc2S(=O)(=O)N1CC(=O)Nc1ccc([N+](=O)[O-])cc1 [5j, Methyl 4-hydroxy-2-(2-((4-nitrophenyl)amino)-2-oxoethyl)-2H-benzo[e][1,2]thiazine-3-carboxylate 1,1-dioxide]	192 to 194	17.1 ± 1.45 µM	
CCOC(=O)c1ccc(NC(=O)CN2C(C(=O)OC)=C(O)c3ccccc3S2(=O)=O)cc1 [5k, Methyl 2-(2-((4-(ethoxycarbonyl)phenyl)amino)-2-oxoethyl)-4-hydroxy-2H-benzo[e][1,2]thiazine-3-carboxylate 1,1-dioxide]		9.8 ± 0.023 µM	
COC(=O)C1=C(O)c2ccccc2S(=O)(=O)N1CC(=O)Nc1ccc(NC(C)=O)cc1 [5l, Methyl 2-(2-((4-acetamidophenyl)amino)-2-oxoethyl)-4-hydroxy-2H-benzo[e][1,2]thiazine-3-carboxylate 1,1-dioxide]		12.6 ± 0.1 µM	
COC(=O)C1=C(O)c2ccccc2S(=O)(=O)N1CC(=O)Nc1cccc(Cl)c1Cl [5m, Methyl 2-(2-((2,3-dichlorophenyl)amino)-2-oxoethyl)-4-hydroxy-2H-benzo[e][1,2]thiazine-3-carboxylate 1,1-dioxide]	154 to 156	14 µM and 14.1 µM	
COC(=O)C1=C(O)c2ccccc2S(=O)(=O)N1CC(=O)Nc1ccc(Cl)cc1Cl [5n, Methyl 2-(2-((2,4-dichlorophenyl)amino)-2-oxoethyl)-4-hydroxy-2H-benzo[e][1,2]thiazine-3-carboxylate 1,1-dioxide]		13 µM and 13.1 µM	
NC(N)=S [thiourea, reference compound]			22.3 ± 0.031
